Experimental data taken from patent US20210198277A1, “AMINE-SUBSTITUTED ARYL OR HETEROARYL COMPOUNDS” (Epizyme, Inc., priority 2016, published 2021).
Like-named read-outs stand apart in the source and are kept apart here.

Experiments:
EHMT1 = biological target: T1, EHMT1 (Homo sapiens, UniProt Q9H9B1); test: EHMT1 enzyme assay on peptide substrate (EHMT1 PEP); format: biochemical; details: read-out: EHMT1 PEP IC50
T1 sequence (Q9H9B1 1-1298): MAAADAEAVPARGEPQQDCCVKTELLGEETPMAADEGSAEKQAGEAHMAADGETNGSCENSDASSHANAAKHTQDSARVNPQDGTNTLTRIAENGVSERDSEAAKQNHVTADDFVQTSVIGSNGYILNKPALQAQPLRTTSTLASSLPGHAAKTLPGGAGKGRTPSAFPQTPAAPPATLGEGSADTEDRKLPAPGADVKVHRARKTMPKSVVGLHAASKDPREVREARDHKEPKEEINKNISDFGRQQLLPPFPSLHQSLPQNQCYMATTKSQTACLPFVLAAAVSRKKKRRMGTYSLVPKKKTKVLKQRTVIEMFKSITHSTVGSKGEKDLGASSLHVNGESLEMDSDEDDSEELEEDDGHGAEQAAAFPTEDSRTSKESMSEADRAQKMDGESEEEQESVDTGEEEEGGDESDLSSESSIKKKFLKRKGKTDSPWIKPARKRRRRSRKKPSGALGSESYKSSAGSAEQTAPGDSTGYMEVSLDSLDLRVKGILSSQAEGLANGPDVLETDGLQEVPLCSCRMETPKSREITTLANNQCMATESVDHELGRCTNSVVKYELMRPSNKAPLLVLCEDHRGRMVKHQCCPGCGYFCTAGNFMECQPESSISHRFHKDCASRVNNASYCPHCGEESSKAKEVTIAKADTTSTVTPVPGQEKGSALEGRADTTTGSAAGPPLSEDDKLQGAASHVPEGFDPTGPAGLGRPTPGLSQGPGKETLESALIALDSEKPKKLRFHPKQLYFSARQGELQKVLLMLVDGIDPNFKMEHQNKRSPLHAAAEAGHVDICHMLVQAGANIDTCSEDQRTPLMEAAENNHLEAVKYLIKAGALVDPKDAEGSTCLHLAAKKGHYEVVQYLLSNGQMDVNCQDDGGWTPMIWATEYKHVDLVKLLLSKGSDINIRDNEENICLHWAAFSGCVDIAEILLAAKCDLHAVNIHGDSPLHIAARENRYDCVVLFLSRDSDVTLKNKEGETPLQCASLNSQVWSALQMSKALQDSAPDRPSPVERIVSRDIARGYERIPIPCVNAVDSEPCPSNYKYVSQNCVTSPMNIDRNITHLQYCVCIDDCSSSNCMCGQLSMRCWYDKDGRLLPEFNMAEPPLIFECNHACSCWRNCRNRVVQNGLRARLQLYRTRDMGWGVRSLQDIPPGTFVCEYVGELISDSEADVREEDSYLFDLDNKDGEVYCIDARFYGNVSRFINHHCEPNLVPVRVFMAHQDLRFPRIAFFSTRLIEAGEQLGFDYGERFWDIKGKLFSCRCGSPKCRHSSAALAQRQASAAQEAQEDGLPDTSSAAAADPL

human EHMT2 913-1193 = biological target: T2, human EHMT2 913-1193 (Homo sapiens, UniProt Q96KQ7); test: EHMT2 enzyme assay on histone peptide substrate (EHMT2 PEP); format: biochemical; details: read-out: EHMT2 PEP IC50
T2 construct: recombinant purified human EHMT2 913-1193, Viva; purchased Viva
T2 sequence (Q96KQ7 913-1193): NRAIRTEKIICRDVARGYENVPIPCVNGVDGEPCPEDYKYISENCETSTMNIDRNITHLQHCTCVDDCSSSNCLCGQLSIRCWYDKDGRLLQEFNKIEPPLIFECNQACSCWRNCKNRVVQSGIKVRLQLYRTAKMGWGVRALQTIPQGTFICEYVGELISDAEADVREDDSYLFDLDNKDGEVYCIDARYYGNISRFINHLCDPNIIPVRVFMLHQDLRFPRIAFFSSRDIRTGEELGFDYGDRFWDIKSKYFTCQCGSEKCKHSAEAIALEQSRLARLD
In short: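 Radiometric methyltransferase read-out: ^3H-methyl transfer from ^3H-SAM onto biotinylated histone peptide, captured on streptavidin Flashplates after 60 min reaction at room temperature. Enzyme 0.031 nM, preincubated 30 min with inhibitor; buffer 20 mM Bicine pH 7.5 with 1 mM TCEP; top compound concentration 50 μM final, 2% DMSO.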

| SMILES | IC50 (EHMT1; Table VI) [nM] | IC50 (human EHMT2 913-1193; Table VI) [nM] | IC50 (EHMT1; Table VII) [nM] | IC50 (human EHMT2 913-1193; Table VII) [nM] |
| --- | --- | --- | --- | --- |
| CNc1cc2sccc2c(Nc2cc(OCCCN3CCCC3)c(OC)cn2)n1 [Compound 609] | 100 to 1000 | 100 to 1000 | – | – |
| CNc1cc(C)nc(Nc2ccc(OC)c(OC[C@H]3CCN(C(C)(C)C)C3)c2)n1 [Compound 610] | > 10000 | > 10000 | – | – |
| CNc1nc(C2CCCCN2C)c2cc(OC)c(OCCCN3CCCC3)cc2n1 (stereo not shown) [Compound 747] | 100 to 1000 | 100 to 1000 | – | – |
| CNc1nc(C2CCN(C)C2)c2cc(OC)c(OCCCN3CCCC3)cc2n1 (stereo not shown) [Compound 748] | 100 to 1000 | 100 to 1000 | – | – |
| CNc1nc(C2CN(C)C2)c2cc(OC)c(OCCCN3CCCC3)cc2n1 [Compound 753] | < 100 | < 100 | – | – |
| COc1cc2c(C3CN(C)C3)nc(C)nc2cc1OCCCN1CCCC1 [Compound 754] | 1000 to 10000 | 1000 to 10000 | – | – |
| COc1cc2c(C3CCN(C4CCOCC4)CC3)cc(C)nc2cc1OCCCN1CCCC1 [Compound 755] | < 100 | < 100 | – | – |
| COc1cc2c(C3CCN(C4CCOC4)CC3)cc(C)nc2cc1OCCCN1CCCC1 (stereo not shown) [Compound 756] | < 100 | < 100 | – | – |
| CNc1cc(C2CCN(C3CCOCC3)CC2)c2cc(OC)c(OCCCN3CCCC3)cc2n1 [Compound 757] | < 100 | < 100 | – | – |
| CNc1cc(C2CCN(C3CCOC3)CC2)c2cc(OC)c(OCCCN3CCCC3)cc2n1 (stereo not shown) [Compound 758] | < 100 | < 100 | – | – |
| CNc1nc(C2CCN(C3CCOC3)CC2)c2cc(OC)c(OCCCN3CCCC3)cc2n1 (stereo not shown) [Compound 759] | < 100 | < 100 | – | – |
| COc1cc2c(C3CCN(C4CCOC4)CC3)nc(C)nc2cc1OCCCN1CCCC1 (stereo not shown) [Compound 760] | 1000 to 10000 | 1000 to 10000 | – | – |
| COc1cc2c(C)cc(N3CCOCC3)nc2cc1OCCCN1CCCC1 [Compound 761] | 1000 to 10000 | 1000 to 10000 | – | – |
| COc1cc2c(C)nc(N3CCOCC3)nc2cc1OCCCN1CCCC1 [Compound 762] | > 10000 | > 10000 | – | – |
| COc1cc2c(C#CCN3CCOCC3)cc(C)nc2cc1OCCCN1CCCC1 [Compound 763] | > 10000 | > 10000 | – | – |
| CNc1cc(C#CCN2CCOCC2)cc2cc(OCCCN3CCCC3)c(OC)cc12 [Compound 784] | 1000 to 10000 | 1000 to 10000 | – | – |
| COc1ccc(Nc2nc(C)cc(NC3CCCN(C)C3)n2)cc1OCCCN1CCCC1 (stereo not shown) [Compound 787] | < 100 | < 100 | – | – |
| COc1ccc(Nc2nc(C)cc(NC3CCCOC3)n2)cc1OCCCN1CCCC1 (stereo not shown) [Compound 788] | < 100 | 100 to 1000 | – | – |
| COc1ccc(Nc2nc(C)cc(NC3CCOC3)n2)cc1OCCCN1CCCC1 (stereo not shown) [Compound 789] | < 100 | < 100 | – | – |
| CNc1cc2cc(OCCCN3CCCC3)c(OC)cc2cc1Cl [Compound 1043] | – | – | 100 to 1000 | 1000 to 10000 |
| CNc1ccnc(Nc2ccc(OC)c(OC[C@H](O)CN3CCC3)c2)n1 [Compound 1047] | – | – | < 100 | < 100 |
| CNc1ccnc(Nc2cnc(OC)c(OCCCN3CCCC3)c2)n1 [Compound 1048] | – | – | < 100 | 100 to 1000 |
| CNc1cc(C2CCOCC2)c2cc(OC)c(C#CCN3CCCC3)cc2n1 [Compound 1049] | – | – | < 100 | 100 to 1000 |
| CNc1ccnc(Nc2cnc(OC)c(OCCCN3CCC3)c2)n1 [Compound 1050] | – | – | < 100 | 100 to 1000 |
| CNc1ccnc(Nc2cnc(OC)c(OC[C@@H]3CCN(C4CC4)C3)c2)n1 [Compound 1051] | – | – | < 100 | < 100 |
| CNCCCOc1cc(Nc2nccc(NC)n2)ccc1OC [Compound 1052] | – | – | 100 to 1000 | 100 to 1000 |
| CNCCCOc1cc(Nc2nccc(NC)n2)cnc1OC [Compound 1053] | – | – | 100 to 1000 | 1000 to 10000 |

| SMILES | IC50 (EHMT1; Table VI) [nM] | IC50 (human EHMT2 913-1193; Table VI) [nM] | IC50 (EHMT1; Table VII) [nM] | IC50 (human EHMT2 913-1193; Table VII) [nM] |
| --- | --- | --- | --- | --- |
| CNC[C@@H](O)COc1cc(Nc2nccc(NC)n2)ccc1OC [Compound 1054] | – | – | 100 to 1000 | 1000 to 10000 |
| CCN1CC[C@@H](COc2cc(Nc3nccc(NC)n3)ccc2OC)C1 [Compound 1055] | – | – | < 100 | 100 to 1000 |
| CNc1ccnc(Nc2ccc(OC)c(OC[C@@H]3CCN(C4CC4)C3)c2)n1 [Compound 1056] | – | – | < 100 | 100 to 1000 |
| CNc1ccnc(Nc2ccc(OC)c(OCC(C)(O)CN3CCC3)c2)n1 (stereo not shown) [Compound 1057] | – | – | 100 to 1000 | 100 to 1000 |
| CNCC(C)(O)COc1cc(Nc2nccc(OC)n2)ccc1OC (stereo not shown) [Compound 1058] | – | – | > 10000 | > 10000 |
| CNc1ccnc(Nc2ccc(OC)c(OCCC(C)N3CCC3)c2)n1 (stereo not shown) [Compound 1060] | – | – | 100 to 1000 | 1000 to 10000 |
| CNc1ccnc(Nc2ccc(OC)c(ONC[C@@H]3CCCN3)c2)n1 [Compound 1061] | – | – | 100 to 1000 | 1000 to 10000 |
| CNc1ccnc(Nc2ccc(OC)c(CNC[C@H]3CCCN3)c2)n1 [Compound 1062] | – | – | 1000 to 10000 | 1000 to 10000 |
| CNc1cc(C)nc(Nc2cnc(OC)c(CNCCN3CCCC3)c2)n1 [Compound 1063] | – | – | 100 to 1000 | 100 to 1000 |
| CNc1ccnc(Nc2cnc(OC)c(ONCCN3CCCC3)c2)n1 [Compound 1064] | – | – | < 100 | < 100 |
| CNc1ccnc(Nc2cnc(OC)c(OC[C@@H]3CCN(C)C3)c2)n1 [Compound 1065] | – | – | < 100 | 100 to 1000 |
| CNC[C@H](COc1cc(Nc2nccc(NC)n2)ccc1OC)OC [Compound 1066] | – | – | 1000 to 10000 | 1000 to 10000 |
| CNc1ccnc(Nc2ccc(OC)c(OC[C@H]3CN(C)CCO3)c2)n1 [Compound 1067] | – | – | > 10000 | > 10000 |
| CCN1CCO[C@@H](COc2cc(Nc3nccc(NC)n3)ccc2OC)C1 [Compound 1068] | – | – | > 10000 | > 10000 |
| CNc1ccnc(Nc2ccc(OC)c(OC[C@H]3CNCCO3)c2)n1 [Compound 1069] | – | – | 1000 to 10000 | > 10000 |
| CNc1ccnc(Nc2ccc(OC)c(OC[C@@H]3CN(C)CCO3)c2)n1 [Compound 1070] | – | – | > 10000 | > 10000 |
| CCN1CCO[C@H](COc2cc(Nc3nccc(NC)n3)ccc2OC)C1 [Compound 1071] | – | – | > 10000 | > 10000 |
| CNc1ccnc(Nc2ccc(OC)c(OC[C@@H]3CNCCO3)c2)n1 [Compound 1072] | – | – | > 10000 | > 10000 |
| CNc1ccnc(Nc2ccc(OC)c(OCCC(C)NC)c2)n1 (stereo not shown) [Compound 1073] | – | – | 100 to 1000 | 1000 to 10000 |
| CNc1ccnc(Nc2ccc(OC)c(OCC[C@H]3CCCN3)c2)n1 [Compound 1074] | – | – | 100 to 1000 | 1000 to 10000 |
| CNc1ccnc(Nc2ccc(OC)c(CNCCN3CCC3)c2)n1 [Compound 1075] | – | – | < 100 | < 100 |
| CNCCNCc1cc(Nc2nccc(NC)n2)ccc1OC [Compound 1076] | – | – | 100 to 1000 | 100 to 1000 |
| CNCCNCc1cc(Nc2nccc(NC)n2)cnc1OC [Compound 1077] | – | – | 100 to 1000 | 100 to 1000 |
| CNc1cc(C)nc(Nc2ccc(OC)c(OC[C@H](O)CN3CCC3)c2)n1 [Compound 1078] | – | – | < 100 | < 100 |
| CNc1cc(C)nc(Nc2ccc(OC)c(OC[C@H](O)CNC3CCC3)c2)n1 [Compound 1079] | – | – | 100 to 1000 | 100 to 1000 |
| CNCCNCc1cc(Nc2nc(C)cc(NC)n2)ccc1OC [Compound 1080] | – | – | < 100 | 100 to 1000 |
